The record followed here is the NIST ThermoML archive (doi:10.1016/j.jct.2008.07.021).

The conditions of data set [1]: Crystal; DTA.
Data set [2] in a line: Molar enthalpy of transition or fusion. Particulars: Crystal; DSC.
Data set [3] can be described thus: molar enthalpy of vaporization or sublimation. To be noted: 298.15 K; Crystal; Static calorimetry.

± gives the expanded uncertainty stated by the source.

Regarding `COc1ccc2c(c1)CCCC2=O` [3,4-dihydro-6-methoxy-1(2H)naphthalenone], the Triple point temperature in data set [1] amounted to 351.27 ± 0.49 K. Moreover, the “Molar enthalpy of transition or fusion” value in data set [2] came out at 5.45 ± 0.182 kcal/mol. The molar enthalpy in data set [3] stood at 25 ± 0.43 kcal/mol.

For `COc1ccc2c(c1)C(=O)CCC2` [7-methoxy-1-tetralone], the Triple point temperature in data set [1] is 334.79 ± 0.39 K. Moreover, the “Molar enthalpy of transition or fusion” value in data set [2] was 5.54 ± 0.127 kcal/mol. Moreover, the molar enthalpy in data set [3] turned out to be 24.6 ± 0.43 kcal/mol.

`COc1cccc2c1CCCC2=O` [3,4-dihydro-5-methoxy-1(2H)-naphthalenone]: in data set [1], the Triple point temperature is given as 362.52 ± 0.39 K. The “Molar enthalpy of transition or fusion” value in data set [2] worked out at 5.29 ± 0.124 kcal/mol. Also, the molar enthalpy in data set [3] turned out to be 23.4 ± 0.215 kcal/mol.
